Assay results: article PMC7281349, “Anti-Inflammatory and Protein Tyrosine Phosphatase 1B Inhibitory Metabolites from the Antarctic Marine-Derived Fungal Strain Penicillium glabrum SF-7123” (Marine Drugs, 2020)

What was measured:
HIV-1-integrase = settings: cited from earlier work
[1] = tested on: LPS-stimulated BV2 microglial cells; experiment: PGE2 production in LPS-stimulated BV2 cells; type: cell-based, murine; settings: Mus musculus, BV-2, mean ± SD of triplicate experiments, read-out: PGE2 Inhibitory Effects, BV2 Cells (IC50)
Excerpt: (§1) LPS is a major cell wall component of Gram-negative bacteria. LPS is an intensive stimulator of macrophages and microglia, and thus treatment of these cells with LPS is frequently employed in research related to the inflammatory phenomenon. In the current study, all the isolated compounds (1–5) were investigated for their anti-neuroinflammatory and anti-inflammatory effects by examining their effects on the overproduction of NO and PGE2 in LPS-stimulated BV2 microglia and RAW264.7 macrophage cells. LPS stimulation increased the production of NO and PGE2 in both cell lines. […] Thus, this compound was selected to further examine the anti-inflammatory effect and to reveal its underlying mechanisms. […] Moreover, compound 2 attenuated the protein expression of iNOS and COX-2 in a dose-dependent manner in LPS-stimulated BV2 cells (Figure 3A).
(§2) RAW264.7 and BV2 cells were maintained at 5 × 10^5 cells/mL in Dulbecco’s modified Eagle’s medium (DMEM) containing 10% fetal bovine serum (FBS), penicillin G (100 U/mL), streptomycin (100 mg/L), and L-glutamine (2 mM) and incubated at 37 °C in a humidified atmosphere containing 5% CO2. DMEM, FBS, and other tissue culture reagents were purchased from Gibco BRL Co. Cell viability was evaluated by the MTT assay as described in our previous report.
The level of PGE2 present in each sample was determined using a commercially available kit from R&D Systems (Minneapolis, MN, USA); the details of this assay were described previously. Three independent assays were performed according to the manufacturer’s instructions.

[2] = tested on: LPS-stimulated BV2 microglial cells; experiment: NO production (nitrite, Griess reaction) in LPS-stimulated BV2 microglial cells; type: cell-based, murine; settings: for IC50: Mus musculus, BV-2, mean ± SD of triplicate experiments, read-out: NO Inhibitory Effects, BV2 Cells (IC50); for Effect on alteration of NO production: 80.0 μM
Excerpt: as §1, §2
To determine the nitrite concentration in the medium as an indicator of NO production, the Griess reaction was carried out as described in our previous report.

[3] = biological target: T1, PTP1B (human, recombinant) (Homo sapiens, UniProt P18031); experiment: PTP1B enzyme assay with pNPP substrate; type: biochemical; settings: for Mode of PTP1B inhibition (Lineweaver–Burk plot): pNPP 0.25-2.0 mM, Km and Vmax analysis; for IC50 / inhibition at 50 µM: pNPP substrate; for IC50: mean ± SD of triplicate experiments, read-out: Inhibitory Effects on PTP1B (IC50); for inhibition at 50 µM: 50 μM compound, read-out: Inhibitory Effects on PTP1B, inhibition percentage at 50 μM
T1 construct: purchased BIOMOL Research Laboratories, Inc
T1 sequence (P18031 1-435): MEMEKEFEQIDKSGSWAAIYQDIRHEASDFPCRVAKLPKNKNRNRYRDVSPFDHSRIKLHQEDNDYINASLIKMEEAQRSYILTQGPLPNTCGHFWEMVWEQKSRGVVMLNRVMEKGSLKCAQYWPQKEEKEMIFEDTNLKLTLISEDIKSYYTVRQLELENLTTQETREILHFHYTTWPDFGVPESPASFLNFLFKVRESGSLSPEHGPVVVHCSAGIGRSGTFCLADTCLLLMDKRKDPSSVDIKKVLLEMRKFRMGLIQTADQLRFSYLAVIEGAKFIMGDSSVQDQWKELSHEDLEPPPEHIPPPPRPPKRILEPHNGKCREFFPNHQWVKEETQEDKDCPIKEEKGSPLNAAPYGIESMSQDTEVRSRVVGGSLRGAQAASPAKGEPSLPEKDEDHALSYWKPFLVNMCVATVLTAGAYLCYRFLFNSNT
Protocol: In addition to the investigation of the anti-inflammatory and anti-neuroinflammatory effects of the isolated metabolites in cellular models, this study attempted to assess the inhibitory effect of the isolated compounds against PTP1B activity.
PTP1B (human, recombinant) used in the current study was purchased from BIOMOL Research Laboratories, Inc. PTP1B enzyme activity was determined using 2 mM of pNPP as a substrate in 50 mM citrate buffer solution (pH 6.0, 0.1 M NaCl, 1 mM EDTA, and 1 mM dithiothreitol). The reaction mixture was incubated at 30 °C for 30 min, and the reaction was terminated by the addition of 1 N NaOH. The amount of p-nitrophenol produced by the enzyme was estimated by measuring the increase in absorbance at 405 nm. The nonenzymatic hydrolysis of 2 mM pNPP was corrected by measuring the increase in absorbance at 405 nm in the absence of PTP1B [31]. The kinetic analysis involved the following: the assays were performed using a reaction mixture that contained different concentrations of pNPP (0.25 mM, 0.5 mM, 1.0 mM, and 2.0 mM) as a PTP1B substrate in the absence or presence of compounds 4 and 5. The Michaelis–Menten constant (Km) and maximum velocity (Vmax) of PTP1B were determined by the Lineweaver–Burk plot using the GraphPad Prism® 4 program (GraphPad Software Inc., San Diego, CA, USA).

endothelin binding = settings: cited from earlier work
[4] = tested on: PC12 pheochromocytoma cells; design: method as in doi:10.1002/1099-0690(200105)2001:10<1963::AID-EJOC1963>3.0.CO; settings: cited from earlier work
[5] = tested on: IL-1β, TNF-α, IL-6, IL-12 mRNA in LPS-stimulated BV2 cells; experiment: qRT-PCR of pro-inflammatory cytokine mRNA in LPS-stimulated BV2 cells; type: cell-based, murine; settings: 3 h pre-treatment, LPS 1 µg/mL for 12 h
[6] = tested on: iNOS and COX-2 protein expression in LPS-stimulated BV2 cells; experiment: Western blot of iNOS and COX-2 in LPS-stimulated BV2 cells; type: cell-based, murine; settings: 1.0, 2.0, 4.0 μM, dose-dependent, LPS 1 μg/mL 24 h
Protocol: Cells were pre-treated with compound 2 (1.0, 2.0, and 4.0 μM) for 3 h and stimulated with LPS (1 μg/mL) for 24 h. The representative blots of three independent analyses for iNOS and COX-2 expression are shown.
(§3) Western blot analysis was carried out according to our previous report. Briefly, cells were harvested by centrifugation at 200 g for 3 min, followed by a washing step with RIPA lysis buffer (25 mM Tris-HCl buffer (pH 7.6), 150 mM NaCl, 1% NP-40, 1% sodium deoxycholate, and 0.1% SDS). Primary antibodies (COX-2: sc-1745; iNOS: sc-650; IкB-α: sc-371; p-IкB-α: sc-8404; p50: sc-7178; and p65: sc-8008) were purchased from Santa Cruz Biotechnology, and secondary antibodies (mouse: ap124p; goat: ap106p; and rabbit: ap132p) were purchased from Millipore.

[7] = tested on: MAPK pathways (ERK, JNK, p38 MAPK) in LPS-stimulated BV2 cells; experiment: MAPK phosphorylation (western blot) in LPS-stimulated BV2 cells; type: cell-based, murine; settings: 1.0, 2.0, 4.0 μM pre-treatment 3 h, LPS 1 h
Protocol: After pre-treatment with compound 2 (1.0, 2.0, and 4.0 μM) for 3 h, the cells were stimulated with LPS for 1 h. Western blot analysis was performed to determine the phosphorylated levels of extracellular signal-regulated kinases (ERK) (p-ERK), c-Jun N-terminal kinases (JNK) (p-JNK), and p38 MAPK (p-p38 MAPK). Representative blots of three independent experiments are shown. Band intensity was quantified by densitometry and normalized to β-actin. * p < 0.05; *** p < 0.001 as compared to the LPS-treated group.
as §3

[8] = tested on: NF-κB pathway in LPS-stimulated BV2 cells; experiment: NF-κB pathway activation (western blot, DNA-binding ELISA) in LPS-stimulated BV2 cells; type: cell-based, murine
Protocol: After pre-treatment with compound 2 (1.0, 2.0, and 4.0 μM) for 3 h, the cells were stimulated with LPS for 1 h. (A–F) Proteins were obtained, and specific anti-IκB-α, anti-p- IκB-α, anti-p65, and anti-p50 antibodies were employed for western blot analysis. Representative blots of three independent experiments are shown. Band intensity was quantified by densitometry and normalized to β-actin for the cytoplasmic fraction and to proliferating cell nuclear antigen (PCNA) for the nuclear fraction. (G, H) NF-κB binding activity in the nuclear fraction was determined using an NF-κB ELISA kit by Active Motif (* p < 0.05; ** p < 0.01; *** p < 0.001) and then compared to that of the LPS-treated group.
Western blot analysis was carried out according to our previous report. Briefly, cells were harvested by centrifugation at 200 g for 3 min, followed by a washing step with RIPA lysis buffer (25 mM Tris-HCl buffer (pH 7.6), 150 mM NaCl, 1% NP-40, 1% sodium deoxycholate, and 0.1% SDS). […]
The DNA-binding activity of NF-κB in the nuclear extracts was measured using the TransAM® kit (Active Motif, Carlsbad, CA, USA); three independent assays for each sample were conducted according to the manufacturer’s instructions.

Structure (SMILES)	IC50 [1]	IC50 [2]	inhibition at 50 µM [3]	HIV-1-integrase inhibition (HIV-1-integrase)	Mode of PTP1B inhibition (Lineweaver–Burk plot) [3]	IC50 [3]	Effect on alteration of NO production [2]	Endothelin binding inhibition (endothelin binding)	Neurite outgrowth in PC12 pheochromocytoma cells [4]	mRNA over-expression of IL-1β, TNF-α, IL-6 and IL-12 [5]	Protein expression of iNOS and COX-2 [6]	Increased phosphorylation levels of ERK and JNK MAPKs [7]	LPS-induced p38 MAPK phosphorylation [7]	Activation of the NF-κB pathway (IκB-α phosphorylation/degradation, p50/p65 nuclear translocation) ([8]; 1.0, 2.0, 4.0 μM pre-treatment 3 h, LPS 1 h)	DNA binding activity of the p65 subunit ([8]; nuclear fraction, NF-κB ELISA kit)
C/C=C/c1cc(=O)c(C(=O)c2c(OC)cc(OC)cc2C(=O)OC)co1 [Compound 5, deoxyfunicone]	32.3 ± 1.6 µM	10.6 ± 0.5 µM		HIV-1-integrase inhibitor	competitive	24.3 ± 1.2 µM									
CC1=Cc2oc3cc(O)c(O)cc3c(=O)c2CO1 [Compound 4, myxotrichin C]	25.2 ± 1.3 µM	28.1 ± 1.4 µM			noncompetitive inhibitor	19.2 ± 1 µM									
COC(=O)c1cc(O)cc(OC)c1Oc1cc(C)cc(O)c1C(=O)O [Compound 3, asterric acid]	> 80 µM	> 80 µM	13.7%				did not significantly affect	endothelin binding inhibitor							

Continued, in another order:

IC50 [1]	IC50 [2]	inhibition at 50 µM [3]	Structure (SMILES)	HIV-1-integrase inhibition (HIV-1-integrase)	Mode of PTP1B inhibition (Lineweaver–Burk plot) [3]	IC50 [3]	Effect on alteration of NO production [2]	Endothelin binding inhibition (endothelin binding)	Neurite outgrowth in PC12 pheochromocytoma cells [4]	mRNA over-expression of IL-1β, TNF-α, IL-6 and IL-12 [5]	Protein expression of iNOS and COX-2 [6]	Increased phosphorylation levels of ERK and JNK MAPKs [7]	LPS-induced p38 MAPK phosphorylation [7]	Activation of the NF-κB pathway (IκB-α phosphorylation/degradation, p50/p65 nuclear translocation) ([8]; 1.0, 2.0, 4.0 μM pre-treatment 3 h, LPS 1 h)	DNA binding activity of the p65 subunit ([8]; nuclear fraction, NF-κB ELISA kit)
> 80 µM	> 80 µM	45.7%	COc1cc2c(cc1O)OCC1=C2O[C@@H](C)CC1=O [Compound 1, 9-O-methylneuchromenin]				did not significantly affect								
3.2 ± 0.2 µM	2.7 ± 0.1 µM	37.8%	C[C@H]1CC(=O)C2=C(O1)c1cc(O)c(O)cc1OC2 [Compound 2, neuchromenin]						induced neurite outgrowth	effectively decreased	attenuated	unchanged	inhibited	suppressed	decreased
